{
  "source": "patent US11007192B2",
  "about": "“Use of 5-amino-2,3-dihydro-1,4-phthalazinedione in the treatment of chronic progressive multiple sclerosis” (METRIOPHARM AG, priority 2016, dated 2021)",
  "key": {"[1]": {"tested_on": "TNFalpha", "conditions": "add on to standard therapy, acute phase RRMS patients; cited from earlier work"}, "[2]": {"tested_on": "PPMS or SPMS", "conditions": "five years (60 months) after start; 200 mg then 300 mg twice a day; baseline EDSS 4.0", "method": "EDSS determination is then performed every 6 months. […] Thus, the dosage is increased to 300 mg twice a day. […] No dosage adjustment is necessary. […] The next treatment round might vary in dosages used and duration of the treatments depending on disease progression."}, "[3]": {"tested_on": "neuronal damage", "conditions": "low concentrations in vitro; cited from earlier work"}, "[4]": {"conditions": "depending on compound, dosage and formulation; cited from earlier work"}, "[5]": {"tested_on": "inflammatory cytokines", "conditions": "mouse, in vivo", "protocol": "(§1) Form II has earlier been tested for its effects on circulating levels of TNF-alpha and IL-6 2 and 4 hours after administration of a sublethal dose of LPS in CD1 mice. Therefore, Form II was administered i.p. at the dose of 0.5, 1.5 and 15.0 mg/kg 15 minutes before LPS challenge."}, "[6]": {"tested_on": "adjuvant induced arthritis", "conditions": "rat, in vivo", "method": "Rats were evaluated for arthritis daily by an observer unaware of the treatment according to a macroscopic scoring system. An arthritis index was calculated for each rat by summing the scores for the individual paws."}, "[7]": {"tested_on": "TNF-alpha", "conditions": "mouse, in vivo", "protocol": "as §1"}, "[8]": {"tested_on": "IL-6", "conditions": "mouse, in vivo", "protocol": "as §1"}},
  "data": [
    {"compound": "Nc1cccc2c(=O)[nH][nH]c(=O)c12.[Na]", "note": "[5-amino-2,3-dihydro-1,4-phthalazinedione sodium salt]", "values": [
      {"measurement": "downregulation of TNFalpha", "setting": "[1]", "value": "promising"},
      {"measurement": "disability progression", "setting": "[2]", "value": 0.5, "unit": "EDSS points"},
      {"measurement": "neuronal damage in neurodegenerative diseases", "setting": "[3]", "value": "prevent neuronal damage"}
    ]},
    {"compound": "Nc1cccc2c(=O)[nH][nH]c(=O)c12", "note": "[5-amino-2,3-dihydro-1,4-phthalazinedione]", "values": [
      {"measurement": "half-life", "setting": "[4]", "value": "several hours"}
    ]},
    {"compound": "Nc1cccc2c(=O)[nH][nH]c(=O)c12.[Na]", "note": "[Form I, 5-amino-2,3-dihydro-1,4-phthalazinedione sodium salt]", "values": [
      {"measurement": "effective dosage confirmed", "setting": "[5]; ip", "value": 0.5, "unit": "mg/kg"},
      {"measurement": "effect when applied orally", "setting": "[5]; po", "value": "there was an effect"},
      {"measurement": "arthritic score", "setting": "[6]", "value": "significantly reduced"},
      {"measurement": "most effective dose", "setting": "[6]", "value": "medium"},
      {"measurement": "cumulative score of the disease", "setting": "[6]; ip, 1 mg/kg", "value": "reduce significantly"}
    ]},
    {"compound": "Nc1cccc2c(=O)[nH][nH]c(=O)c12.[Na]", "note": "[Form II, 5-amino-2,3-dihydro-1,4-phthalazinedione sodium salt]", "values": [
      {"measurement": "Downregulation of TNF-alpha compared to vehicle", "setting": "[7]", "value": "significant"},
      {"measurement": "Downregulation of TNF-alpha significant compared to vehicle", "setting": "[7]", "value": "not"},
      {"measurement": "dose with best efficacy in down-regulation of TNF-alpha", "setting": "[7]", "value": 0.5, "unit": "mg/kg"},
      {"measurement": "Downregulation of IL-6 compared to vehicle", "setting": "[8]", "value": "significant"},
      {"measurement": "Downregulation of IL-6 significant compared to vehicle", "setting": "[8]", "value": "not"},
      {"measurement": "dose with best efficacy in down-regulation of IL-6", "setting": "[8]", "value": 0.5, "unit": "mg/kg"},
      {"measurement": "blood levels of inflammatory cytokines provoked by sublethal dose of LPS", "setting": "[5]", "value": "significantly reduced"}
    ]}
  ]
}
